Measured values reported in patent publication US7288258B2, “Polyepitopic protein fragments of the E6 and E7 proteins of HPV, their production and their use particularly in vaccination” (Peptide Immune Ligands, priority 1999, dated 2007).

How the values were obtained:
Experiment in all cases: association of peptide with HLA molecules and stability of the complex
Conditions in all cases: stable complex: peptide remains bound for at least about 3 hours at 37° C.
[1] = tested on: HLA molecules of the A29 type; format: binding, human
From the text: (§1) The different epitopes of the polyepitopic region of the predetermined protein, and delimiting the epitopic protein fragments, are preferably selected from the peptides; • binding to a predetermined molecule of MCH, particularly to a molecule of the predetermined HLA type, and this from concentrations of about 10^−6 M to about 10^−10 M in peptide for concentrations of about 10^−7 M of HLA molecules, particularly under the conditions described hereafter, • and forming a stable complex with said MCH molecule, namely particularly a complex in which said peptide remains bound to said molecule for at least about 3 hours at 37° C.
(§2) By way of illustration, the above-mentioned epitopes of the invention are selected from among the peptides adapted: • on the one hand of associating with the molecules of MCH, particularly by using the following method: • incubation (particularly for about 2 hours at 25° C., then about 15 hours at 4° C.) of the peptide in the presence of MCH molecules, from the lysis of human or animal cells, or purified particularly by affinity chromatography from human or animal cell lines, • trapping complexes formed during the preceding step on a solid support covered with a first antibody, particularly monoclonal, recognizing specifically the CMH molecules in their configuration dependent on their connection to said peptide, • addition to the preceding solid support of a second marked antibody, particularly by coupling to a radioactive, enzymatic or fluorescent marker, said marked antibody recognizing specifically either the long chains of MCH in their configuration dependent on their connection to the peptide, or the short chain of MCH or the β2-microglobulin binding specifically to the different long chains of the MCH in their above-mentioned configuration, • detection, after rinsing of the solid support, of the possible presence of the second marked antibody remaining fixed on the solid support, signifying an association effect between the molecules of MCH and the peptide studied, • and, on the other hand, forming a complex with said MCH molecules, whose stability can be evaluated by the use of a method of following according to time the connection established between the peptide and the MCH molecules, this method being preferably carried out according to a protocol identical to the preceding method, but in which the incubation step of the peptide in the presence of MCH molecules on the solid support covered with said first antibody, is preceded by a preliminary step of eliminating the free peptide adapted that may be present in the reaction medium, particularly by washing the solid support, said incubation step being carried out (preferably at a temperature of 37° C.) for variable times of 1 hours, 3 hours, 5 hours, 24 hours and 48 hours.
(§3) As mentioned above, the epitopes of the invention should be recognized by the T cells in association with the MCH molecules and associate with these latter, particularly in the framework of the practice of the recognition test described above. This association can be weak (detectable at concentrations of peptide analogs of the order of 10^−4 to 10^−5 M), intermediate (detectable at concentrations of peptide analogs of the order of 10^−6 to 10^−7 M), or strong (detectable at concentrations of peptide analogs of the order of 10^−8 to 10^−9 M). The peptides associated with the MCH molecules in the scope of the present invention are preferably adapted to bond during at least about 3 hours, to said MCH molecules.

[2] = tested on: HLA molecules of the B44 type; format: binding, human
From the text: as §1, §2, §3

[3] = tested on: HLA molecules of the B35 type; format: binding, human
From the text: as §1, §2, §3

[4] = target: T1, HLA molecules of the B7 type (Homo sapiens, UniProt P01889); format: binding
T1 construct: endogenous in cells
From the text: as §1, §2, §3

[5] = tested on: HLA molecules of the B8 type; format: binding, human
From the text: as §1, §2, §3

[6] = tested on: HLA molecules of the A24 type; format: binding, human
From the text: as §1, §2, §3

[7] = tested on: HLA molecules of the A2 type; format: binding, human
From the text: as §1, §2, §3

[8] = tested on: HLA molecules of the B51 type; format: binding, human
From the text: as §1, §2, §3

[9] = tested on: HLA molecules of the A11 type; format: binding, human
From the text: as §1, §2, §3

[10] = target: T2, HLA molecules of the A3 type (Homo sapiens, UniProt P04439); format: binding
T2 construct: endogenous in cells
From the text: as §1, §2, §3

[11] = tested on: HLA molecules of the B27 type; format: binding, human
From the text: as §1, §2, §3

T1 sequence (P01889 25-362): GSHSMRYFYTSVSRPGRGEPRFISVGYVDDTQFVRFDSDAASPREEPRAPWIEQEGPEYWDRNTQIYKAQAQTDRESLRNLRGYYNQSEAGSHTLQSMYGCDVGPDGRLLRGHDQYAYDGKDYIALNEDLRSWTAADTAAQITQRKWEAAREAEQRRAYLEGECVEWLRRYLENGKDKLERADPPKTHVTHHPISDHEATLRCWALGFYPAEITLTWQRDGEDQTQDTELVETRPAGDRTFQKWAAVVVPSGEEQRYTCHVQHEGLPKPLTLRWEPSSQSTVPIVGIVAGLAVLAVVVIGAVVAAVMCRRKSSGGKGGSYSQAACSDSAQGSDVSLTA
T1 sequence (P61769 21-119, further chain): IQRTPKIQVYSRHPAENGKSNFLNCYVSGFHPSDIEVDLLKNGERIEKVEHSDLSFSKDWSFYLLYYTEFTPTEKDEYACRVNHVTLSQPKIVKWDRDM
T2 sequence (P61769 21-119): as the sequence (P61769 21-119, further chain) above
T2 sequence (P04439 25-365): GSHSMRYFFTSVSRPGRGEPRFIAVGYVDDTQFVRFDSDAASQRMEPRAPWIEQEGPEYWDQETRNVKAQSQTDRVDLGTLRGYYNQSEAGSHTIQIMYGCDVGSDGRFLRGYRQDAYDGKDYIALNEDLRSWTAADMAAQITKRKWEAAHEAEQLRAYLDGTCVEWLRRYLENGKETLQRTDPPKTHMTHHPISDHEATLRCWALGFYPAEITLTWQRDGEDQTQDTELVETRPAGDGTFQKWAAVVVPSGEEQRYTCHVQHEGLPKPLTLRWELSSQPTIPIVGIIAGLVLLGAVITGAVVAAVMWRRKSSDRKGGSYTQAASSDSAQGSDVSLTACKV

## AEPDRAHY (Human Papillomavirus)
[1]
  binding stably to HLA molecules of the A29 type: binding stably
[2]
  binding stably to HLA molecules of the B44 type: binding stably

## ALNKMFCQL (listed as Homo sapiens)
[3]
  binding stably to HLA molecules of the B35 type: binding stably

## APPQHLIRV
[4]
  binding stably to HLA molecules of the B7 type: binding stably

## CVYCKQQL (Human Papillomavirus)
[5]
  binding stably to HLA molecules of the B8 type: binding stably

## CYSLYGTTL (Human Papillomavirus)
[6]
  binding stably to HLA molecules of the A24 type: binding stably

## DKKQRFHNI (Human Papillomavirus)
[5]
  binding stably to HLA molecules of the B8 type: binding stably

## EPDRAHYNIV (Human Papillomavirus)
[3]
  binding stably to HLA molecules of the B35 type: binding stably
[4]
  binding stably to HLA molecules of the B7 type: binding stably

## EYLDDRNTF
[6]
  binding stably to HLA molecules of the A24 type: binding stably

## FAFRDLCIV (Human Papillomavirus)
[7]
  binding stably to HLA molecules of the A2 type: binding stably
[3]
  binding stably to HLA molecules of the B35 type: binding stably
[8]
  binding stably to HLA molecules of the B51 type: binding stably
[4]
  binding stably to HLA molecules of the B7 type: binding stably

## FRDLCIVYR (Human Papillomavirus)
[9]
  binding stably to HLA molecules of the A11 type: binding stably
[10]
  binding stably to HLA molecules of the A3 type: binding stably

## FRHSVVVPY (listed as Homo sapiens)
[11]
  binding stably to HLA molecules of the B27 type: binding stably

## GDTPTLHEY (Human Papillomavirus)
[2]
  binding stably to HLA molecules of the B44 type: binding stably

## GLAPPQHLIRV
[7]
  binding stably to HLA molecules of the A2 type: binding stably

## GRNSFEVR (listed as Homo sapiens)
[11]
  binding stably to HLA molecules of the B27 type: binding stably

## GSYGFRLGFL (listed as Homo sapiens)
[3]
  binding stably to HLA molecules of the B35 type: binding stably

## IILECVYCK (Human Papillomavirus)
[9]
  binding stably to HLA molecules of the A11 type: binding stably

## IRVEGNLRVEY (listed as Homo sapiens)
[11]
  binding stably to HLA molecules of the B27 type: binding stably

## ITLEDSSGN (listed as Homo sapiens)
[7]
  binding stably to HLA molecules of the A2 type: binding stably

## IVCPICSQK
[9]
  binding stably to HLA molecules of the A11 type: binding stably
[10]
  binding stably to HLA molecules of the A3 type: binding stably

## IVYRDGNPY
[9]
  binding stably to HLA molecules of the A11 type: binding stably
[10]
  binding stably to HLA molecules of the A3 type: binding stably

## IYKQSQHM (listed as Homo sapiens)
[6]
  binding stably to HLA molecules of the A24 type: binding stably

## KKQRFHNIR (Human Papillomavirus)
[11]
  binding stably to HLA molecules of the B27 type: binding stably

## KLPQLCTEL
[7]
  binding stably to HLA molecules of the A2 type: binding stably

## KPLCDLLI (Human Papillomavirus)
[3]
  binding stably to HLA molecules of the B35 type: binding stably
[8]
  binding stably to HLA molecules of the B51 type: binding stably
[4]
  binding stably to HLA molecules of the B7 type: binding stably

## LECVYCKQQL (Human Papillomavirus)
[1]
  binding stably to HLA molecules of the A29 type: binding stably
[2]
  binding stably to HLA molecules of the B44 type: binding stably

## LEDLLMGTL (Human Papillomavirus)
[1]
  binding stably to HLA molecules of the A29 type: binding stably
[2]
  binding stably to HLA molecules of the B44 type: binding stably

## LEDSSGNLL (listed as Homo sapiens)
[2]
  binding stably to HLA molecules of the B44 type: binding stably

## LEQQYNKPL
[1]
  binding stably to HLA molecules of the A29 type: binding stably
[2]
  binding stably to HLA molecules of the B44 type: binding stably

## LLGRNSFEV
[7]
  binding stably to HLA molecules of the A2 type: binding stably

## LLMGTLGIV
[7]
  binding stably to HLA molecules of the A2 type: binding stably

## LPQLCTEL (Human Papillomavirus)
[8]
  binding stably to HLA molecules of the B51 type: binding stably

## LRVEYLDDR (listed as Homo sapiens)
[11]
  binding stably to HLA molecules of the B27 type: binding stably
